Laboratory results reported in PubChem BioAssay (NCI).
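48-hour exposure; five concentrations; linearly interpolated endpoints. GI50 = concentration required for 50% inhibition of growth. The concentration for full growth arrest is given as TGI.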

Experiments:
Assay in all cases: NCI anticancer screen, dose series, 48 h
ACHN renal = tested on: ACHN renal
HOP-62 NSCLC = tested on: HOP-62 NSCLC
HT29 colon = tested on: HT29 colon
M14 melanoma = tested on: M14 melanoma
MOLT-4 leukemia = tested on: MOLT-4 leukemia
SF-268 CNS = tested on: SF-268 CNS
SK-MEL-5 melanoma = tested on: SK-MEL-5 melanoma
SNB-75 CNS = tested on: SNB-75 CNS
SW-620 colon = tested on: SW-620 colon
TK-10 renal = tested on: TK-10 renal

| SMILES | TGI (ACHN renal) [µM] | TGI (HOP-62 NSCLC) [µM] | TGI (HT29 colon) [µM] | TGI (M14 melanoma) [µM] | TGI (MOLT-4 leukemia) [µM] | TGI (SF-268 CNS) [µM] | TGI (SK-MEL-5 melanoma) [µM] | TGI (SNB-75 CNS) [µM] | TGI (SW-620 colon) [µM] | TGI (TK-10 renal) [µM] | GI50 (ACHN renal) [µM] | GI50 (HOP-62 NSCLC) [µM] | GI50 (HT29 colon) [µM] | GI50 (M14 melanoma) [µM] | GI50 (MOLT-4 leukemia) [µM] | GI50 (SF-268 CNS) [µM] | GI50 (SK-MEL-5 melanoma) [µM] | GI50 (SW-620 colon) [µM] | GI50 (TK-10 renal) [µM] | GI50 (SNB-75 CNS) [µM] |
| --- | --- | --- | --- | --- | --- | --- | --- | --- | --- | --- | --- | --- | --- | --- | --- | --- | --- | --- | --- | --- |
| COC(=O)Cc1cc(=O)oc2c1C(=O)CCC2 | > 100 | > 100 | > 100 | > 100 | > 100 | > 100 | > 100 | > 100 | > 100 | > 100 |  |  |  |  |  |  |  |  |  |  |
| Cc1ccc(-c2cc(C(Cl)Cl)on2)cc1 | > 100 | > 100 | > 100 | > 100 | > 100 | > 100 | > 100 |  | > 100 | > 100 | 33.5 | 95.5 | 26.9 | 74.1 | 26.8 | > 100 | 25.3 | 67.5 | 54.9 |  |
| N#CC1=C(N)NC(=S)C(C#N)C12Nc1ccccc1S2 (centres undefined) | 29.4 | 72.4 | 77.7 | 32 | > 100 | 42.9 | 26.7 | 73 | 42.3 | 46.6 | 9.82 | 17.6 | 29.3 | 16.1 | > 100 | 14.8 | 12.8 | 19.1 | 14.4 | 28.1 |
| O=C(O)C(CS)N=Cc1nc(-c2ccccc2)oc1O (centres undefined) | > 100 | > 100 | > 100 | > 100 | > 100 | > 100 | > 100 | > 100 | > 100 | > 100 |  |  |  |  |  |  |  |  |  |  |
| NCCn1c2c(c3ccccc3c1=O)C(=O)c1ccccc1-2 | 0.31 | 1.1 | 5.22 |  | 0.095 | 8.99 | 1.9 | 3.2 | 4.32 | 3.64 | < 0.0453 | 0.369 | 0.401 |  | < 0.0378 | 1.32 | 0.386 | 0.147 | 0.778 | 1.04 |
| CCCCOP1(=O)C=CC(Cl)=C(C)C1 (centres undefined) | 36.3 | > 100 | 45 | > 100 | 25.3 | 89.2 |  | 49.6 | 42.7 | 75.1 |  |  |  |  |  |  |  |  |  |  |
| Cc1nnc(N=Nc2c(O)[nH]c3ccccc23)[nH]c1=O | > 100 | > 100 | > 100 | > 100 | > 100 | > 100 |  |  | > 100 | > 100 |  |  |  |  |  |  |  |  |  |  |
| C=CCN(N=O)C(=O)ON1C(=O)CCC1=O | > 100 | > 100 | > 100 | > 100 | > 100 | > 100 |  | > 100 | > 100 | > 100 |  |  |  |  |  |  |  |  |  |  |
| Cc1cc2c(-c3nc4ccccn4c3NC34CC5CC(CC(C5)C3)C4)c(O)c(O)cc2c(O)c1-c1c(C)cc2c(-c3nc4ccccn4c3NC34CC5CC(CC(C5)C3)C4)c(O)c(O)cc2c1O | 2.88 | > 25 | > 25 |  | 10.4 | 6.78 | 1.51 | 19.1 | > 25 | > 25 | 0.785 | 0.724 | 0.788 |  | 0.11 | 0.239 | 0.564 | 0.881 | 0.794 | 1.04 |
| O=C1OC(c2ccc(Cl)c3ccccc23)c2ccccc21 (centres undefined) | > 100 | > 100 | > 100 | > 100 | > 100 | > 100 | > 100 | 51.1 |  |  |  |  |  |  |  |  |  |  |  |  |
| COc1cc(/C=C2/C(=O)N(C(=O)c3ccccc3O)N=C2C)ccc1O | > 100 | > 38.9 | > 100 | 35.3 | > 100 | > 100 | > 42.1 |  | > 100 | > 100 |  |  |  |  |  |  |  |  |  |  |
| Cc1ccc(N2C(=O)/C(=C3\Sc4c(nc(C)n(C)c4=O)N3c3ccccc3)SC2=S)cc1 | > 100 |  | > 100 | > 100 | > 100 | > 100 | > 100 | 79.4 | > 100 | > 100 |  |  |  |  |  |  |  |  |  |  |
| CC(C)(C)c1cc(C(=O)O)c(C(c2ccccc2)c2ccccc2C(=O)O)c(C(=O)O)c1 (centres undefined) | 40 | > 100 | > 100 | > 100 | > 100 | > 100 |  | 42.2 | > 100 | > 100 |  |  |  |  |  |  |  |  |  |  |
| CC(=O)Oc1ccc2c(c1)O/C(=C\c1ccc(O)cc1)C2=O | > 100 | > 100 |  | > 100 | > 100 | > 100 | > 100 | > 100 | > 100 | > 100 |  |  |  |  |  |  |  |  |  |  |
| Cc1nc2cc(Nc3nc(Nc4ccc(F)cc4)nc(-c4ccc(Cl)cc4)n3)ccc2n1Cc1ccccc1 | > 100 | 27.3 | > 100 | > 100 | > 100 | 97.3 | > 100 | 10.5 | > 100 |  | 3.89 | 7.36 | 4.63 | 4.42 | 3.09 | 10.1 | 3.47 | 7.55 |  | 2.2 |
| COC12C=C/C(=C(/C(=O)OCc3csc(SC)n3)C(=O)CCCCCCCCC3(OC)C=C/C(=C(/C(=O)OCc4cnc(SC)s4)C(=O)CCCCCCCC1)O3)O2 (centres undefined) | 28.9 | 70.6 | > 100 | > 100 |  | > 100 | 3.56 | 28.9 | > 100 | 74.8 | 2.51 | 4.48 | 4.41 | 2.62 |  | 5.75 | 1.7 | 3.66 | 15.8 | 7.61 |
| CC12O[Te]34OC1(C)C(C)(O3)C2(C)O4 | 27 | 36.8 | 30.3 | 33.7 | 34.6 | 23.9 |  | > 8.75 | 32.6 | 29.4 |  |  |  |  |  |  |  |  |  |  |
| O=C(O)C(Cc1c[nH]c2ccccc12)N1C(=O)c2ccccc2C1=O (centres undefined) | > 100 | > 100 | > 100 | > 100 |  | > 100 | > 100 | > 100 | > 100 | > 100 |  |  |  |  |  |  |  |  |  |  |
| CC1(C)Oc2ccccc2N2O[C@@H]3C(=O)N(c4ccccc4)C(=O)[C@@H]3C21c1ccccc1 (some centres undefined) |  | 31.5 | 68.5 | 46.4 | > 100 | > 100 | 44.3 | 35.3 | > 100 | 33.1 |  |  |  |  |  |  |  |  |  |  |
| Cc1ccc(NCCNCC(O)CO)c2c(=O)c3ccccc3sc12 (centres undefined) | 3.07 | 2.95 | 3.04 | 3.13 |  | 3.96 | 2.93 | 11.5 | 2.57 | 3.1 | 1.29 | 1.35 | 1.41 | 1.55 |  | 1.81 | 1.57 | 1.04 | 1.51 | 2.07 |
| CC(=O)Nc1ccc2c(c1)CN1C(=O)c3ccccc3C1=N2 | > 100 | > 100 |  | > 100 | > 100 | > 100 | > 100 | > 100 | > 100 |  | > 100 | > 100 |  | > 100 | > 100 | > 100 | > 100 | > 100 |  | > 100 |
| CC[C@H](C)[C@H](NC(=O)N[C@@H](C)c1ccccc1)C(=O)N(C)[C@H](C[C@@H](OC(C)=O)c1nc(C(=O)N[C@@H](Cc2ccccc2)C[C@H](C)C(=O)OC)cs1)C(C)C | > 100 | > 100 | > 100 | 46.7 |  | > 100 | 40.2 | > 100 | > 100 | > 100 | 29.3 | 33 | 28.3 | 15.9 |  | 29.7 | 13.1 | 26.4 | 52 | 13.8 |
| CC(C)(C)OC(=O)n1c(Cl)c(C(=O)N=C=S)c2ccccc21 | > 100 | > 100 | > 100 | > 100 |  | > 100 | 40.1 | > 100 | > 100 | > 100 | 29.5 | > 100 | > 100 | > 100 |  | 37.5 | 18.8 | 35.4 | 27.3 | > 100 |
| O=c1/c(=C/c2ccc3c(c2)OCO3)sc2nnc(Cc3ccccc3)n12 | > 100 | > 100 |  | > 100 | > 100 | > 100 | > 100 | > 100 | > 100 | > 100 |  |  |  |  |  |  |  |  |  |  |
| O=C(NOC(=O)c1ccc([N+](=O)[O-])cc1)c1ccc(Cl)cc1 | > 100 | > 100 | > 100 | > 100 | > 100 | > 100 | > 100 | 54.6 | > 100 |  |  |  |  |  |  |  |  |  |  |  |
| O=C1Nc2ccc(Br)cc2C1=Nc1ccc(Cl)cc1 | 39.1 | 52.1 | 38.5 | 72.2 | > 100 | 55.8 | 20.1 |  | 32.5 | 51.4 |  |  |  |  |  |  |  |  |  |  |
